Paper PMC10413460 (ACS Omega, 2023)

Molecular target: epidermal growth factor receptor tyrosine kinase (EGFR-TK) (Homo sapiens, UniProt P00533)
Assay: ADP-Glo kinase assay, cell-free
Type: biochemical

epidermal growth factor receptor tyrosine kinase (EGFR-TK), sequence (P00533 669-1210 limits assumed): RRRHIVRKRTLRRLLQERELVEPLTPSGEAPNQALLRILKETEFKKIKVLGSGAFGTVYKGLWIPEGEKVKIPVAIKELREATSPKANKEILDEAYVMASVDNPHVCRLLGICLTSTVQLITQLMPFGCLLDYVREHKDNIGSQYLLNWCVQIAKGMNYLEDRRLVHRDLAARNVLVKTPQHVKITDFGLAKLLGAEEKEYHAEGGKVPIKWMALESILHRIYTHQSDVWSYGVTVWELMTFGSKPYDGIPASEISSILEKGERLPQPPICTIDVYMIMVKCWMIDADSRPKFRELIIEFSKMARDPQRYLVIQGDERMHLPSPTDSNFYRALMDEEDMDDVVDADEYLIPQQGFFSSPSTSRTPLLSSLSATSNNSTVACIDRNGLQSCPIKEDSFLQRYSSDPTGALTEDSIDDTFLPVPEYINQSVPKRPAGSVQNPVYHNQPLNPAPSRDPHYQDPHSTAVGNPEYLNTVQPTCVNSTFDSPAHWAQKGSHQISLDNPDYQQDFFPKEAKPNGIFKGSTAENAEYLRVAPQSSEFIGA

Structure (SMILES): COC(=O)[C@@]12OC[C@]34[C@H]([C@@H](O)[C@@H]1O)[C@@]1(C)CC(=O)C(O)=C(C)[C@@H]1C[C@H]3OC(=O)[C@H](OC(=O)C=C(C)C)[C@@H]24 [brusatol]
- IC50: 333 nM
